Assay results as given in patent US10351553B2, “Potassium channel modulators” (Cadent Therapeutics, Inc., priority 2017, dated 2019).
Values after ≈ are worked out from the molar mass of the structure shown.

Legend:
[1] = Brain free fraction by equilibrium dialysis in rat brain tissue homogenate; type: in vitro ADME; conditions: 10% rat brain tissue homogenate, Tables 2 and 3
Experimental: The extent to which compounds modulate SK2 channels in vivo is expressed as % SK2 SC100, which is the ratio of the concentration of the drug free in the brain to the measured potency of the compound on the SK2 channel. It is calculated as follows: CFB=CMB×BFF, where CMB is the concentration of compound measured by liquid chromatography mass spectrometry from brains harvested immediately following tremor recording (Table 1, “Measured Brain Concentration”). CFB is the amount of free compound not complexed with protein and therefore free to interact with the SK2 channel (Table 1, “Calculated Free Brain Concentration”). BFF is average free fraction of compound as measured by equilibrium dialysis in separate experiments (1 uM test concentration incubated in 10% rat brain tissue homogenate for 5 hours at 37° C.) (Table 1, “Brain Free Fraction”). Free drug in brain available to interact with SK2 channels (CFB) is arrived at by multiplying the measured total brain level (CMB) by the average free fraction (BFF).

[2] = Aqueous (kinetic) solubility, shake-flask, phosphate buffer pH 7.4; type: physicochemical; conditions: 23 °C, kinetic from dmso stock, phosphate buffer pH 7.4, 16 hours at room temperature
Experimental: Aqueous solubility (kinetic solubility) tests of the compounds were performed in phosphate buffer saline (pH 7.4) measured by shake-flask method. In this assay, DMSO stock solution of test compound is added to buffer followed by equilibration (shaking), filtration and determination of soluble amount by HPLC-UV Conditions used in the assay are summarized below.

SK2 channels = target: T1, SK2 channels (Homo sapiens, UniProt Q9H2S1); assay: Whole-cell patch-clamp of SK2 current in HEK293 cells expressing SK2 channels; type: cell-based; conditions: Table 2; concentration that produces doubling of channel current; averages from later experiments
T1 construct: expressed in transfected cells; host or cells: HEK293
Experimental: The biological activity was determined as follows. The ionic current through small-conductance Ca^2+-activated K^+ channels (SK channels, subtype 2) was measured using the whole-cell configuration of the patch-clamp technique in a patch-clamp set-up using HEK293 tissue culture cells expressing SK2 channels as described in Hougaard et al., British Journal of Pharmacology 151, 655-665, May 8, 2007, the entire teachings of which are incorporated herein by reference. In one aspect, a compound is defined to be an SK Positive Allosteric Modulator (PAM) if the compound increases current in this assay, for example, if the SC100 value of the compound is less than or equal to 10 μM as determined by this assay. The SC100 value is defined to be the concentration of compound that increases the basal current by 100%.

Row | Structure (SMILES) | fraction unbound at 5 h, 1 uM [1] | solubility kinetic at 16 h [2] [µg/mL] | SK2 potency (SC100) (SK2 channels) [µM]
1 | Cc1ccn(-c2nc(N[C@@H]3CCCC[C@H]3F)cc(N3CCOCC3)n2)n1 [Comparator B, reference compound] | – | – | 5.8
2 | Cc1cc(C)n(-c2nc(Nc3ccc(Cl)cc3)cc(N3CCOCC3)n2)n1 [Comparator C, reference compound] | 0.0016 | 1 (≈ 2.6 µM) | –
3 | FC1(F)CCC(Nc2cc(N3CCOCC3)nc(-n3ccc(C4CC4)n3)n2)CC1 [Compound 7, 2-(3-cyclopropyl-1H-pyrazol-1-yl)-N-(4,4-difluorocyclohexyl)-6-morpholinopyrimidin-4-amine] | 0.0155 | 49.7 (≈ 123 µM) | –

Second part, the molecule after the results:

Row | fraction unbound at 5 h, 1 uM [1] | solubility kinetic at 16 h [2] [µg/mL] | SK2 potency (SC100) (SK2 channels) [µM] | Structure (SMILES)
4 | 0.042 | 80.3 (≈ 227 µM) | – | Cc1csc(-c2nc(NC3CCC(F)(F)CC3)cc([C@H](C)O)n2)n1 (single isomer, unassigned) [Compound 5]
5 | 0.0431 | 66.7 (≈ 188 µM) | – | Cc1csc(-c2nc(NC3CCC(F)(F)CC3)cc([C@@H](C)O)n2)n1 (single isomer, unassigned) [Compound 6]
6 | 0.0276 | 31 (≈ 91.9 µM) | – | COc1cc(NC2CCC(F)(F)CC2)nc(-n2nc(C)cc2C)n1 [Compound 2, N-(4,4-difluorocyclohexyl)-2-(3,5-dimethyl-1H-pyrazol-1-yl)-6-methoxypyrimidin-4-amine]
7 | 0.0269 | 70.9 (≈ 208 µM) | – | COc1cc(NC2CCC(F)(F)CC2)nc(-c2nc(C)cs2)n1 [Compound 3, N-(4,4-difluorocyclohexyl)-6-methoxy-2-(4-methylthiazol-2-yl) pyrimidin-4-amine]
